Test results taken from patent US6699678B1, “Chlamydia trachomatis specific peptides and their use in diagnostic assays” (Savyon Diagnostics Ltd., priority 1997, dated 2004).

Assay type: physicochemical
From the text: c. Stabilizing the kit for longer shelf life.
Results: The wash buffer that enabled only three washing steps was the one that contained non-ionic detergent, this being the above-noted PBS-TWEEN buffer (see constituent no. (ii) in the above list).
This is also the case for the other reagents used in the improved kit, as mentioned above.

Row | Compound | storage stability at 4° C. (in words) | storage stability at 37° C. (in words)
1 | CCN(Cc1cccc(S(=O)(=O)[O-])c1)c1ccc(C(=C2C=CC(=[N+](CC)Cc3cccc(S(=O)(=O)[O-])c3)C=C2)c2ccccc2S(=O)(=O)[O-])cc1.[Na+].[Na+] [blue brilliant] | for one year | stable for one month
2 | O=S(=O)([O-])c1ccc(N=Nc2c(O)ccc3cc(S(=O)(=O)[O-])ccc23)cc1.[Na+].[Na+] [yellow sunset] | for one year | stable for one month
